ChEMBL document CHEMBL1909046, “DrugMatrix in vitro pharmacology data”

Key:
[1] = DRUGMATRIX: Tumor Necrosis Factor (TNF), Non-Selective radioligand binding (ligand: [125I] TNF-alpha); type: cell membranes, Membrane; conditions: u-937; Not Active = under 50% inhibition at 10 µM
[2] = biological target: Tyrosine-protein kinase Lck (Homo sapiens, UniProt P06239); experiment: DRUGMATRIX: Protein Tyrosine Kinase, LCK enzyme inhibition (substrate: Poly(Glu:Tyr)); type: cell-based, Insect cells; conditions: insect cells; Not Active = under 50% inhibition at 10 µM
Sequence of Tyrosine-protein kinase Lck (P06239 whole entry): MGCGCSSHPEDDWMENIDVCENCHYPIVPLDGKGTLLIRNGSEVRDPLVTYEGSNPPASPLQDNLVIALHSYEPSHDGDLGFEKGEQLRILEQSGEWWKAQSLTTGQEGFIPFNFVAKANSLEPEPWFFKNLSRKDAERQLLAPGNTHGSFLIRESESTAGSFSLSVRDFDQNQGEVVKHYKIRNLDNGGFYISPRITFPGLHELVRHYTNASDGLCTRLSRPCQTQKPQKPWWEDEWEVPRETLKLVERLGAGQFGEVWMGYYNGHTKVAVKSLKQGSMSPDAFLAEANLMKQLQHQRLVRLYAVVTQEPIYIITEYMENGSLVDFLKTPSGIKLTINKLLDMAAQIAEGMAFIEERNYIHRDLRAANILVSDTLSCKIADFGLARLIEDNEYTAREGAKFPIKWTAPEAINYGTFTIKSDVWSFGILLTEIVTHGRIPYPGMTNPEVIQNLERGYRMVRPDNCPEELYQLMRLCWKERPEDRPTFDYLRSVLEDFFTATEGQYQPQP

B2 bradykinin receptor = biological target: T1, B2 bradykinin receptor (Homo sapiens, UniProt P30411); type: cell membranes, Membrane; conditions: chem-1; note: in other assays of this panel Not Active means under 50% inhibition at 10 µM
T1 sequence (P30411 whole entry): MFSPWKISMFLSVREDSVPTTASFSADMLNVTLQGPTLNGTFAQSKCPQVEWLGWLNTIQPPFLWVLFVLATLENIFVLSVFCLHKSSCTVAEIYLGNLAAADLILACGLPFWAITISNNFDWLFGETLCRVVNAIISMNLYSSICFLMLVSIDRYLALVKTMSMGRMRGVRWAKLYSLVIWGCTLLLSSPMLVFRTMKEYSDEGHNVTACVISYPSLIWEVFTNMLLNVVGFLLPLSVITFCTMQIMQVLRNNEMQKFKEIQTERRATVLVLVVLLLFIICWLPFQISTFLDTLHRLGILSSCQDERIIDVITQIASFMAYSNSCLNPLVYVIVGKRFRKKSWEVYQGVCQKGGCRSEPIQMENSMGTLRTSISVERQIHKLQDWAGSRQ

Cytochrome P450 2E1 = Cytochrome P450 2E1 (Homo sapiens, UniProt P05181); conditions: bti-tn-5b1-4; note: in other assays of this panel Not Active means under 50% inhibition at 10 µM
Sequence of Cytochrome P450 2E1 (P05181 whole entry): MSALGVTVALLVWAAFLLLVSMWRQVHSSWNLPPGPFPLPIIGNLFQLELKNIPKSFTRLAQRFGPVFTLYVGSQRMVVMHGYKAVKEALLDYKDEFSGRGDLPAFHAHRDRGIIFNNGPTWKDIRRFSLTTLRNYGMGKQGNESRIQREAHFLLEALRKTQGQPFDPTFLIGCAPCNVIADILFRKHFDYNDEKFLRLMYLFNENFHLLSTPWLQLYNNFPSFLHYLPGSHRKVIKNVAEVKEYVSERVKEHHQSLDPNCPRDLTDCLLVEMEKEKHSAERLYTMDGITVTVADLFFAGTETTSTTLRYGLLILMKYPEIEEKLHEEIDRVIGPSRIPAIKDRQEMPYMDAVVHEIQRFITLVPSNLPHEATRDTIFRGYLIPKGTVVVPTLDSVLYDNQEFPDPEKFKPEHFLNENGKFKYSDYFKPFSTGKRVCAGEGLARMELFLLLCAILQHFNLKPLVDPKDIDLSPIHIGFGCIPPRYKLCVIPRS

[3] = DRUGMATRIX: Nicotinic Acetylcholine radioligand binding (ligand: [125I] Epibatidine); type: cell membranes, Membrane; conditions: imr-32; Not Active = under 50% inhibition at 10 µM
[4] = DRUGMATRIX: Phosphodiesterase PDE3 enzyme inhibition (substrate: [3H]cAMP + cAMP); type: tissue-based, Homo sapiens; conditions: platelet; Not Active = under 50% inhibition at 10 µM
[5] = biological target: Tyrosine-protein kinase Fyn (Homo sapiens, UniProt P06241); experiment: biochemical; type: cell-based, Insect cells; conditions: insect cells;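 note: enzymatic inhibition of Fyn kinase activity measured with Poly(Glu:Tyr) as the phosphorylation substrate; in other assays of this panel Not Active means under 50% inhibition at 10 µM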
Sequence of Tyrosine-protein kinase Fyn (P06241 whole entry): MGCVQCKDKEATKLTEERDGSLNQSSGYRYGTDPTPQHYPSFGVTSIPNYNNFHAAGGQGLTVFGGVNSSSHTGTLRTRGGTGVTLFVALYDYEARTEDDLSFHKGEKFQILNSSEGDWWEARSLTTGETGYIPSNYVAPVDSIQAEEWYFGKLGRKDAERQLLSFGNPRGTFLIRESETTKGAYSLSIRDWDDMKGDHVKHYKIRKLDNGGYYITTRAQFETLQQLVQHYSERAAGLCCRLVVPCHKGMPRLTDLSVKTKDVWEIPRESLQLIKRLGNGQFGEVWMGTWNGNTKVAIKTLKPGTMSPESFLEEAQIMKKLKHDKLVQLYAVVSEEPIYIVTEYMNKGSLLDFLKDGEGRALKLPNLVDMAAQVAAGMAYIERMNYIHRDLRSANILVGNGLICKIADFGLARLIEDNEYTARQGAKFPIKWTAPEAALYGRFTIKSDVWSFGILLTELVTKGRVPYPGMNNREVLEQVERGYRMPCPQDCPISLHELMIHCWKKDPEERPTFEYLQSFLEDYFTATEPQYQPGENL

CC(=O)OCC(CCn1cnc2cnc(N)nc21)COC(C)=O [FAMCICLOVIR]
Not Active: IC50 [1] | Ki [1] | IC50 [2] | IC50 (B2 bradykinin receptor) | IC50 (Cytochrome P450 2E1) | Ki (Cytochrome P450 2E1) | IC50 [3] | Ki [3] | IC50 [4] | Ki [4] | IC50 [5]

O=C(O)Cc1ccc(-c2ccccc2)cc1 [FELBINAC]
Not Active: IC50 [1] | Ki [1] | IC50 [2] | IC50 (B2 bradykinin receptor) | IC50 (Cytochrome P450 2E1) | Ki (Cytochrome P450 2E1) | IC50 [3] | Ki [3] | IC50 [4] | Ki [4] | IC50 [5]

CCOC(=O)C1=C(C)NC(C)=C(C(=O)OC)C1c1cccc(Cl)c1Cl (centres undefined) [FELODIPINE]
Not Active: IC50 [1] | Ki [1] | IC50 [2] | IC50 (B2 bradykinin receptor) | IC50 (Cytochrome P450 2E1) | Ki (Cytochrome P450 2E1) | IC50 [3] | Ki [3] | IC50 [4] | Ki [4] | IC50 [5]

CC(C(=O)O)c1ccc(-c2ccccc2)c(F)c1 (centres undefined) [FLURBIPROFEN]
Not Active: IC50 [1] | Ki [1] | IC50 [2] | IC50 (B2 bradykinin receptor) | IC50 (Cytochrome P450 2E1) | Ki (Cytochrome P450 2E1) | IC50 [3] | Ki [3] | IC50 [4] | Ki [4] | IC50 [5]

NC[C@@H]1O[C@H](O[C@H]2[C@@H](O)[C@H](O[C@@H]3[C@@H](O)[C@H](N)C[C@H](N)[C@H]3O[C@H]3O[C@H](CN)[C@@H](O)[C@H](O)[C@H]3N)O[C@@H]2CO)[C@H](N)[C@@H](O)[C@@H]1O [FRAMYCETIN]
Not Active: IC50 [1] | Ki [1] | IC50 [2] | IC50 (B2 bradykinin receptor) | IC50 (Cytochrome P450 2E1) | Ki (Cytochrome P450 2E1) | IC50 [3] | Ki [3] | IC50 [4] | Ki [4] | IC50 [5]

C[C@H]([C@](O)(Cn1cncn1)c1ccc(F)cc1F)S(C)(=O)=O [GENACONAZOLE]
Not Active: IC50 [1] | Ki [1] | IC50 [2] | IC50 (B2 bradykinin receptor) | IC50 (Cytochrome P450 2E1) | Ki (Cytochrome P450 2E1) | IC50 [3] | Ki [3] | IC50 [4] | Ki [4] | IC50 [5]

Cc1c(F)c(N2CCNC(C)C2)cc2c1c(=O)c(C(=O)O)cn2C1CC1 (centres undefined) [GREPAFLOXACIN]
Not Active: IC50 [1] | Ki [1] | IC50 [2] | IC50 (B2 bradykinin receptor) | IC50 (Cytochrome P450 2E1) | Ki (Cytochrome P450 2E1) | IC50 [3] | Ki [3] | IC50 [4] | Ki [4] | IC50 [5]

N=C(N)N/N=C/c1c(Cl)cccc1Cl [GUANABENZ]
Not Active: IC50 [1] | Ki [1] | IC50 [2] | IC50 (B2 bradykinin receptor) | IC50 (Cytochrome P450 2E1) | Ki (Cytochrome P450 2E1) | IC50 [3] | Ki [3] | IC50 [4] | Ki [4] | IC50 [5]

C[C@]12CCC(=O)C=C1CC[C@@H]1[C@@H]2[C@@H](O)C[C@@]2(C)[C@H]1CC[C@]2(O)C(=O)CO [HYDROCORTISONE]
Not Active: IC50 [1] | Ki [1] | IC50 [2] | IC50 (B2 bradykinin receptor) | IC50 (Cytochrome P450 2E1) | Ki (Cytochrome P450 2E1) | IC50 [3] | Ki [3] | IC50 [4] | Ki [4] | IC50 [5]

NC[C@H]1O[C@H](O[C@H]2[C@H](O)[C@@H](O[C@H]3O[C@H](CO)[C@@H](O)[C@H](N)[C@H]3O)[C@H](N)C[C@@H]2N)[C@H](O)[C@@H](O)[C@@H]1O [KANAMYCIN]
Not Active: IC50 [1] | Ki [1] | IC50 [2] | IC50 (B2 bradykinin receptor) | IC50 (Cytochrome P450 2E1) | Ki (Cytochrome P450 2E1) | IC50 [3] | Ki [3] | IC50 [4] | Ki [4] | IC50 [5]

CC[C@H](C)C(=O)O[C@H]1C[C@@H](C)C=C2C=C[C@H](C)[C@H](CC[C@@H]3C[C@@H](O)CC(=O)O3)[C@H]21 [LOVASTATIN]
Not Active: IC50 [1] | Ki [1] | IC50 [2] | IC50 (B2 bradykinin receptor) | IC50 (Cytochrome P450 2E1) | Ki (Cytochrome P450 2E1) | IC50 [3] | Ki [3] | IC50 [4] | Ki [4] | IC50 [5]

CC(C(=O)O)c1ccc(CC2CCCC2=O)cc1 (centres undefined) [LOXOPROFEN]
Not Active: IC50 [1] | Ki [1] | IC50 [2] | IC50 (B2 bradykinin receptor) | IC50 (Cytochrome P450 2E1) | Ki (Cytochrome P450 2E1) | IC50 [3] | Ki [3] | IC50 [4] | Ki [4] | IC50 [5]

Cc1cccc(Nc2ccccc2C(=O)O)c1C [MEFENAMIC ACID]
Not Active: IC50 [1] | Ki [1] | IC50 [2] | IC50 (B2 bradykinin receptor) | IC50 (Cytochrome P450 2E1) | Ki (Cytochrome P450 2E1) | IC50 [3] | Ki [3] | IC50 [4] | Ki [4] | IC50 [5]

CC(=O)O[C@]1(C(C)=O)CC[C@H]2[C@@H]3C=C(C)C4=CC(=O)CC[C@]4(C)[C@H]3CC[C@@]21C [MEGESTROL ACETATE]
Not Active: IC50 [1] | Ki [1] | IC50 [2] | IC50 (B2 bradykinin receptor) | IC50 (Cytochrome P450 2E1) | Ki (Cytochrome P450 2E1) | IC50 [3] | Ki [3] | IC50 [4] | Ki [4] | IC50 [5]
